# Source: patent US7288273B1, “Gallotannins and ellagitannins as regulators of cytokine release” (The Penn State Research Foundation, priority 2000, dated 2007)
# Key:
# [1] = system: TNF-α secretion from h-PBMC's; experiment: TNF-α release from h-PBMC's, ELISA; type: cell-based, human; details: 24 hours, ± SD
# How it was run: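 Human PBMCs from healthy donors (1×10^6 cells/well in RPMI) were incubated with compound added from HBSS stock for 24 h at 37 °C, 5% CO2. TNF-α in culture supernatants was measured by ELISA against standard curves, with LPS as positive control and untreated cells as negative; mean of triplicates.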
# [2] = system: LPS induced TNF-α secretion from h-PBMC's; experiment: Inhibition of LPS induced TNF-α secretion from h-PBMC's; type: cell-based, human; details: for TNF-α secreted in the presence of LPS and 17c-20c: LPS 5 μg/mL, compound 10 μg/mL added after 45 minutes, h-PBMC's 3rd subject; for TNF-α secreted in the presence of LPS and 17c-20c / TNF-α secreted in the presence of LPS and 19c / 20c / TNF-α secreted in the presence of LPS and 18c-20c: ± SD; for TNF-α secreted in the presence of LPS and 19c / 20c: 8 h incubation; for TNF-α secreted in the presence of LPS and 19c / 20c / TNF-α secreted in the presence of LPS and 18c-20c: 4th subject
# How it was run: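 Human PBMCs stimulated with LPS (5 or 10 μg/mL), compounds added at varying concentrations 45 min after LPS or simultaneously; supernatants harvested after 8 h. Secreted TNF-α normalized as percent of maximum secretion with LPS alone.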
structure (smiles),measurement,setting,value
"O=C(OC[C@H]1O[C@@H](OC(=O)c2ccc(-c3ccc(C(=O)O[C@@H]4O[C@H](COC(=O)c5cc(O)c(O)c(O)c5)[C@@H](OC(=O)c5cc(O)c(O)c(O)c5)[C@H](OC(=O)c5cc(O)c(O)c(O)c5)[C@H]4OC(=O)c4cc(O)c(O)c(O)c4)cc3)cc2)[C@H](OC(=O)c2cc(O)c(O)c(O)c2)[C@@H](OC(=O)c2cc(O)c(O)c(O)c2)[C@@H]1OC(=O)c1cc(O)c(O)c(O)c1)c1cc(O)c(O)c(O)c1 [Compound 19c, 1,1′-O-2.2′,3,3′,4,4′,6,6′-Tetrakis(3,4,5-trihyroxybenzoyl)-β,β′-D,D′-glucopyranosylbiphenyl-4.4′-diester]",TNF-α secreted in the presence of 17c-21c,[1]; compound 0.6 μM,73.4 ± 58.3 pg/mL
same,TNF-α secreted in the presence of 17c-21c,[1]; compound 2.9 μM,50.9 ± 28.0 pg/mL
same,TNF-α secreted in the presence of 17c-21c,[1]; compound 5.9 μM,8.0 ± 8.0 pg/mL
same,TNF-α secreted in the presence of 17c-21c,[1]; compound 11.8 μM,9.5 ± 6.5 pg/mL
same,TNF-α secreted in the presence of 17c-21c,[1]; compound 17.6 μM,24.5 ± 10.7 pg/mL
same,TNF-α secreted in the presence of 17c-21c,[1]; compound 23.5 μM,67.6 ± 21.0 pg/mL
same,TNF-α secreted in the presence of 17c-21c,[1]; compound 29.4 μM,117.8 ± 44.0 pg/mL
same,TNF-α secreted in the presence of LPS and 17c-20c,[2]; time 1 h,328.2 ± 61.5 pg/mL
same,TNF-α secreted in the presence of LPS and 17c-20c,[2]; time 4 h,1880.0 ± 20.1 pg/mL
same,TNF-α secreted in the presence of LPS and 17c-20c,[2]; time 8 h,1921.5 ± 399.8 pg/mL
same,TNF-α secreted in the presence of LPS and 17c-20c,[2]; time 12 h,2229.3 ± 353.1 pg/mL
same,TNF-α secreted in the presence of LPS and 17c-20c,[2]; time 16 h,2561.2 ± 718.8 pg/mL
same,TNF-α secreted in the presence of LPS and 17c-20c,[2]; time 24 h,2146.9 ± 69.3 pg/mL
same,maximum inhibition of LPS induced TNF-α secretion,"[2]; LPS 10 μg/mL, substrate added after 45 minutes, 8 hours",25%
same,TNF-α secreted in the presence of LPS and 19c / 20c,[2]; compound 0.6 μM added 45 minutes after LPS 1 μg/mL,85.1 ± 10.3 % max. response
same,TNF-α secreted in the presence of LPS and 18c-20c,"[2]; compound 0.6 μM added 45 minutes after LPS 10 μg/mL, 8 hours",114.3 ± 11.9 % max. response
same,TNF-α secreted in the presence of LPS and 19c / 20c,[2]; compound 1.7 μM added 45 minutes after LPS 1 μg/mL,78.3 ± 9.1 % max. response
same,TNF-α secreted in the presence of LPS and 18c-20c,"[2]; compound 2.8 μM added 45 minutes after LPS 10 μg/mL, 8 hours",83.5 ± 26.1 % max. response
same,TNF-α secreted in the presence of LPS and 19c / 20c,[2]; compound 3.4 μM added 45 minutes after LPS 1 μg/mL,81.8 ± 15.9 % max. response
same,TNF-α secreted in the presence of LPS and 19c / 20c,[2]; compound 5.6 μM added 45 minutes after LPS 1 μg/mL,57.5 ± 14.1 % max. response
same,TNF-α secreted in the presence of LPS and 18c-20c,"[2]; compound 5.6 μM added 45 minutes after LPS 10 μg/mL, 8 hours",79.4 ± 15.1 % max. response
same,TNF-α secreted in the presence of LPS and 19c / 20c,[2]; compound 11.2 μM added 45 minutes after LPS 1 μg/mL,57.4 ± 7.3 % max. response
same,TNF-α secreted in the presence of LPS and 18c-20c,"[2]; compound 11.2 μM added 45 minutes after LPS 10 μg/mL, 8 hours",92.4 ± 21.4 % max. response
same,TNF-α secreted in the presence of LPS and 18c-20c,"[2]; compound 22.4 μM added 45 minutes after LPS 10 μg/mL, 8 hours",73.0 ± 12.6 % max. response
